Usually IC50 stands for the concentration needed to halve the response being measured. For orientation: melting point means the temperature of the solid-liquid transition.

Values after ≈ are worked out from the molar mass of the structure shown. Bounds are passed on as bounds.

One data set deals with M. bovis BCG. As to the kind of experiment: microbe, parasite or virus in culture. Format: cell-based. As to conditions: Mycobacterium tuberculosis variant bovis BCG, read-out: MIC M. bovis BCG.
Another data set concerns M. tuberculosis H37Rv. As to the kind of experiment: Antimycobacterial MIC / primary screening, MABA (microplate alamar blue assay). Type of data set: cell-based. As to conditions: Mycobacterium tuberculosis. On the technique in general: Alamar Blue is a resazurin reagent that responds to reducing activity.
For another data set, the system named is M. abscessus. As to the kind of experiment: Antimycobacterial MIC / primary screening, MABA. Type of data set: cell-based. As to conditions: Mycobacteroides abscessus, read-out: MIC M. abscessus.
A further data set has as its system L929 cells. In words: Cytotoxicity, MTT protocol (ISO 10993-5:2009(E)). As to conditions: ratio to MIC against M. tuberculosis. Format: cell-based. As for the experimental part:
This evaluation adhered precisely to international standards (ISO 10993-5:2009(E)), employing L929 cells and the MTT protocol ([Bekier et al., 2021]). The determination of the half maximal inhibitory concentration (IC50) values was carried out for 12 out of the 13 compounds tested, considering the occurrence of derivative precipitation in the growth medium for L929 cells (Table 1). […] For two compounds (5g and 5i), the discriminatory index (IC50/MIC) was identified at the level of 20.

A further data set addresses MTB InhA (Mycobacterium tuberculosis, UniProt P9WGR1). In words: InhA inhibition endpoint assay. Format: biochemical. As to conditions: read-out: IC50 against InhA.
In the next data set the test system is MTB. As to conditions: cited from earlier work.

MTB InhA, sequence (P9WGR1 whole entry, looked up): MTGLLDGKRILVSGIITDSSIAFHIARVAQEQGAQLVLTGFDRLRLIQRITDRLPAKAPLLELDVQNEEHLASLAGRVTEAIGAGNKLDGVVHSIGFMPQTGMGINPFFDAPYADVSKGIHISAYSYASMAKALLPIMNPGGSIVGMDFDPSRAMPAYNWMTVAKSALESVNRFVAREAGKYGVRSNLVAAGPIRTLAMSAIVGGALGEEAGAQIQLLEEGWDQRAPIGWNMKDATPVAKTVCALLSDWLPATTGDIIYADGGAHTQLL

As to `Cc1c(-c2cc(C(=O)O)c3cc(Cl)ccc3n2)nnn1-c1ccc(Cl)cc1` [Compound 5n, 6-Chloro-2-(1-(4-chlorophenyl)-5-methyl-1H-1,2,3-triazol-4-yl)benzo [b]pyridine-4-carboxylic acid], the MIC in the data set with M. bovis BCG is less than 125 µg/mL; against M. tuberculosis H37Rv it was 12.5 µg/mL (≈ 31.3 µM); with M. abscessus, greater than 125 µg/mL. In addition, the “IC50-L929/MIC Mtb (cytotoxicity / discriminatory index)” value with L929 cells turned out to be 16. For the same compound, the IC50 on MTB InhA was 0.72 ± 0.03 µM.
Consider `Fc1cccc(-c2nc3ccccc3n2Cc2cn(-c3ccc(F)cc3F)nn2)c1` [compound VII], for which the “MIC, tuberculosis” value with MTB (ref Gill et al., 2008) is 6.25 µg/mL (≈ 15.4 µM).
`Cc1c(-c2cc(C(=O)O)c3cc(Cl)ccc3n2)nnn1-c1ccccc1` [Compound 5i, 6-Chloro-2-(5-methyl-1-phenyl-1H-1,2,3-triazol-4-yl)benzo [b]pyridine-4-carboxylic acid] yielded a melting point greater than 300 °C. In the data set on M. bovis BCG, the MIC is less than 125 µg/mL. Besides, in the data set on M. tuberculosis H37Rv, the MIC was determined as 15 µg/mL (≈ 41.1 µM). Also, the MIC in the data set with M. abscessus is greater than 125 µg/mL. In addition, in the data set with L929 cells, the “IC50-L929/MIC Mtb (cytotoxicity / discriminatory index)” value is given as 20. At MTB InhA, the IC50 was 11.8 ± 0.49 µM.
On to `O=C(N/N=C/c1cn(-c2ccc(Cl)cc2)nn1)c1ccncc1` [compound VI], for which, in the data set with MTB (MTB H37Rv, ref Boechat et al., 2011), the “MIC, MTB H37Rv strain” value is 0.62 µg/mL (≈ 1.9 µM).
`Cc1c(-c2cc(C(=O)O)c3ccccc3n2)nnn1-c1ccc(Br)cc1` [Compound 5g, 2-(1-(4-Bromophenyl)-5-methyl-1H-1,2,3-triazol-4-yl)benzo [b]pyridine-4-carboxylic acid] yielded a melting point of 228 to 229 °C. Moreover, the MIC in the data set on M. bovis BCG is less than 125 µg/mL. Also, in the data set on M. tuberculosis H37Rv, the MIC was 15 µg/mL (≈ 36.7 µM). For the same compound, the MIC in the data set on M. abscessus was greater than 125 µg/mL. Besides, in the data set on L929 cells, the “IC50-L929/MIC Mtb (cytotoxicity / discriminatory index)” value was 20. Also, the IC50 on MTB InhA turned out to be 4.13 ± 0.17 µM.
`CC(C)c1ccc2nc(-c3ccc4ccc5ccccc5c4c3)cc(C(=O)O)c2c1` [Compound II]: the “MIC against MTB” value in the data set on MTB (ref Quimque et al., 2023) was “around 16 μM”.
